Reference: patent publication US20140072630A1, “COMBINATION THERAPY WITH NANOPARTICLE COMPOSITIONS OF TAXANE AND HEDGEHOG INHIBITORS” (ABRAXIS BIOSCIENCE, LLC, priority 2009, published 2014)
Where “and” joins values, the source holds several entries; their conditions need not be identical. Equal entries are not always repeated.

Key:
[1] = tested on: human colon adenocarcinoma HT29 xenograft; assay: Tumor growth in human colon adenocarcinoma HT29 xenograft model; type: in vivo, mice; conditions: for tumor inhibition as single agent: i.p., 75 mg/kg qdx12 and 100 mg/kg qdx12
Method: The effects of each of ABI2012, ABI1914, ABI2088, and ABI2099 on tumor growth were studied in human colon adenocarcinoma HT29 xenograft model. Mice were implanted with HT29 cells and ABI2012, ABI1914, ABI2088, and […] were administered by intraperitoneal route (“i.p.”) to the mice at two dosages: 75 mg/kg qdx12 and 100 mg/kg qdx12. […] The body weights of the mice with HT 29 xenograft treated with ABI2012, ABI1914, ABI2088, or ABI2099 were monitored, as shown in FIGS. 5B and 5D.
The effects of the combination of various Hedgehog pathway inhibitors (ABI2012, ABI1914, ABI2088, or ABI2099) and Abraxane® were studied in HT29 xenograft model. Each of ABI2012, ABI1914, ABI2088, and ABI2099 was administered at 75 mg/kg qdx12, i.p. Abraxane® was administered at 10 mg/kg q4dx3, i.v. The tumor volumes were measured. […] The body weights of the mice with HT 29 xenograft treated with each of ABI2012, ABI1914, ABI2088, and ABI2099 in combination with Abraxane® were monitored, as shown in FIG. 6B.

cSRC(h) = cSRC(h) (Homo sapiens, UniProt P12931); assay: Kinase inhibition at 1 μM; type: biochemical; conditions: 1 μM of compound
Chain of cSRC(h) (P12931 whole entry): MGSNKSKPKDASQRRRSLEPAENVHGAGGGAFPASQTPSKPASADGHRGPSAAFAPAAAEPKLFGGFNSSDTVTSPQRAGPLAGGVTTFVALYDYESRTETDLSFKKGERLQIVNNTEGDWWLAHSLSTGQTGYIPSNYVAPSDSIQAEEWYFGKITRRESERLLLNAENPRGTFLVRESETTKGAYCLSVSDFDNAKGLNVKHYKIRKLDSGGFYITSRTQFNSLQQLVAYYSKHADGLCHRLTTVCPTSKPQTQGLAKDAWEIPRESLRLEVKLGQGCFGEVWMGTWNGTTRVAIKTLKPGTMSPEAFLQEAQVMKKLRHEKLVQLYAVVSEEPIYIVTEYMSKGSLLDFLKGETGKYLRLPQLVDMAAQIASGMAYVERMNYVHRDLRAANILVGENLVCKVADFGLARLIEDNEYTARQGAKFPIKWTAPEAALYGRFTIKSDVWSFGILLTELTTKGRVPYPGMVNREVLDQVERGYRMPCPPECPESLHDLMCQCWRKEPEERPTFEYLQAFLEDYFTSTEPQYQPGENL
Text: (§1) The activities of various hedgehog inhibitors (ABI2012, ABI1914, ABI2008, and ABI1915) on kinase inhibition were studied. […] The compounds were stable in microsomes.

EGFR(h) = EGFR(h) (Homo sapiens, UniProt P00533); assay: Kinase inhibition at 1 μM; type: biochemical; conditions: 1 μM of compound
Text: as §1

EphB4(h) = EphB4(h) (Homo sapiens, UniProt P54760); assay: Kinase inhibition at 1 μM; type: biochemical; conditions: 1 μM of compound
Chain of EphB4(h) (P54760 16-987): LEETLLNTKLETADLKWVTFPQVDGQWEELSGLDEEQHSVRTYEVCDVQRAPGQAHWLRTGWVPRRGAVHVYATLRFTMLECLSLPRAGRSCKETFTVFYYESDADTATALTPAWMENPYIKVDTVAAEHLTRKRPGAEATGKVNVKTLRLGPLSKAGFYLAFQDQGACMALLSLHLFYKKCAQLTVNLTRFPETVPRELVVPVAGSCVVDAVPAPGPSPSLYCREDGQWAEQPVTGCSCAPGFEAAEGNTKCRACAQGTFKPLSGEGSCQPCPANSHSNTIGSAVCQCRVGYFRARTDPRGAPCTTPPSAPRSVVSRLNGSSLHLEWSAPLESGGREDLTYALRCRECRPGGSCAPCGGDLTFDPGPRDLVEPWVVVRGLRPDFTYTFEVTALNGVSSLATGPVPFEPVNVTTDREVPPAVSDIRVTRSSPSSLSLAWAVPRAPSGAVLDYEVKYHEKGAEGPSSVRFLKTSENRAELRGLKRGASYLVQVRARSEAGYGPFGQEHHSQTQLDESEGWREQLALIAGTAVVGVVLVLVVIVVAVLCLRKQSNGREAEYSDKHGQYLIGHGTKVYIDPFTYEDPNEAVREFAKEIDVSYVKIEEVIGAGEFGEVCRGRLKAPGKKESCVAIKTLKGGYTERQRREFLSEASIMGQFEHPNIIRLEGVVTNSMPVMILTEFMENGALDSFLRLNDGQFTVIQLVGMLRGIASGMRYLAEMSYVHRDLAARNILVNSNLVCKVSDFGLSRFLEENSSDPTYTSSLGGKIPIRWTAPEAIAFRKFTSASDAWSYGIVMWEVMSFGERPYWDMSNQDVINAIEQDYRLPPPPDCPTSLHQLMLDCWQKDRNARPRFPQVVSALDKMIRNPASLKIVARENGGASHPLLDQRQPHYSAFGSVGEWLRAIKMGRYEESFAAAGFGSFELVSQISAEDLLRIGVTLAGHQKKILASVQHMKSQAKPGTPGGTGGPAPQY
Text: as §1

TrkA(h) = TrkA(h) (Homo sapiens, UniProt P04629); assay: Kinase inhibition at 1 μM; type: biochemical; conditions: 1 μM of compound
Text: as §1

mTOR(h) = mTOR(h) (Homo sapiens, UniProt P42345); assay: Kinase inhibition at 1 μM; type: biochemical; conditions: 1 μM of compound
Text: as §1

Ab1(h) = Ab1(h) (Homo sapiens, UniProt P00519); assay: Kinase inhibition at 1 μM; type: biochemical; conditions: 1 μM of compound
Chain of Ab1(h) (P00519 whole entry): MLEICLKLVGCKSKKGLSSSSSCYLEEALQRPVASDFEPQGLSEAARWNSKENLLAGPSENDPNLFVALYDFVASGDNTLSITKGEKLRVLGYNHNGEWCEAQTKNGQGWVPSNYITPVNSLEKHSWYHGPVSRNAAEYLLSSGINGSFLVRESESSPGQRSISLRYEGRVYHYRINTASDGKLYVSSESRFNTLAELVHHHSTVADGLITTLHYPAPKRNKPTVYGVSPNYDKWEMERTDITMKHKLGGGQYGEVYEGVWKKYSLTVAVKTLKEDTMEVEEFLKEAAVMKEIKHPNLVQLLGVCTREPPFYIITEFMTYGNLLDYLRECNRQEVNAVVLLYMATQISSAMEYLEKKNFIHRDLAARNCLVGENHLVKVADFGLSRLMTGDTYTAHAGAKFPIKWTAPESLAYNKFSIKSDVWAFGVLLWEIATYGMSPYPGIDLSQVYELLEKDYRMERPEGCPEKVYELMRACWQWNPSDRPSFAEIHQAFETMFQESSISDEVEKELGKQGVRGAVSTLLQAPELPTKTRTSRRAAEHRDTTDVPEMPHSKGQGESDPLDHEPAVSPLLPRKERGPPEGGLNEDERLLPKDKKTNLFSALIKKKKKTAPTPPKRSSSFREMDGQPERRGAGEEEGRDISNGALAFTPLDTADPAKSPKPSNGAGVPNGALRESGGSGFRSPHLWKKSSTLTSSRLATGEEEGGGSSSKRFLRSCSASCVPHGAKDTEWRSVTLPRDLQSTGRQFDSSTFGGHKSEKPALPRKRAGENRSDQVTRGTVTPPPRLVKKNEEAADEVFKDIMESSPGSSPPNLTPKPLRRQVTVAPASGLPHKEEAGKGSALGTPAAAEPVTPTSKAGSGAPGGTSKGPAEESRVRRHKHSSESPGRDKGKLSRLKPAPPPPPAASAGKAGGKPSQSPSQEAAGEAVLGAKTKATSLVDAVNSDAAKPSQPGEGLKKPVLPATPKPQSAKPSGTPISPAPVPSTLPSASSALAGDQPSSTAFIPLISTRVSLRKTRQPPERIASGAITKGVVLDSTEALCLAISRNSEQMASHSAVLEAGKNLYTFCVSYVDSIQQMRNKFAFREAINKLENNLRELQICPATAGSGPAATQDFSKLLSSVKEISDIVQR
Text: as §1

PDGFRa(h) = PDGFRa(h) (Homo sapiens, UniProt P16234); assay: Kinase inhibition at 1 μM; type: biochemical; conditions: 1 μM of compound
Text: as §1

cKit(h) = cKit(h) (Homo sapiens, UniProt P10721); assay: Kinase inhibition at 1 μM; type: biochemical; conditions: 1 μM of compound
Text: as §1

Met(h) = Met(h) (Homo sapiens, UniProt P08581); assay: Kinase inhibition at 1 μM; type: biochemical; conditions: 1 μM of compound
Text: as §1

MEK1(h) = MEK1(h) (Homo sapiens, UniProt Q02750); assay: Kinase inhibition at 1 μM; type: biochemical; conditions: 1 μM of compound
Chain of MEK1(h) (Q02750 whole entry): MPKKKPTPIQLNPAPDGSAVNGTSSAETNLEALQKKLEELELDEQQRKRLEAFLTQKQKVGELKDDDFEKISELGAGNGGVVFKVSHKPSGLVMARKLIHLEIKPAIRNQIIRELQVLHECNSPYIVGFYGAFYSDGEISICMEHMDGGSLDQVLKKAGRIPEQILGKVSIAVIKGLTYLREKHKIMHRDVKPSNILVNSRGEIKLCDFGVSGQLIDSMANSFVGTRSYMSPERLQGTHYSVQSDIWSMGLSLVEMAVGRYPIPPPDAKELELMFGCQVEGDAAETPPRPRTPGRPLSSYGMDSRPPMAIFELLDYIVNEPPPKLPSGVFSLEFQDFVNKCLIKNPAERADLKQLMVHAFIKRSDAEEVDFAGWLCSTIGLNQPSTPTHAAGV
Text: as §1

Flt3(h) = Flt3(h) (Homo sapiens, UniProt P36888); assay: Kinase inhibition at 1 μM; type: biochemical; conditions: 1 μM of compound
Text: as §1

PKBa(h) = PKBa(h) (Homo sapiens, UniProt P31749); assay: Kinase inhibition at 1 μM; type: biochemical; conditions: 1 μM of compound
Text: as §1

GF-1R(h), activate = GF-1R(h), activate (Homo sapiens, UniProt P08069); assay: Kinase inhibition at 1 μM; type: biochemical; conditions: 1 μM of compound
Chain of GF-1R(h), activate (P08069 31-1367): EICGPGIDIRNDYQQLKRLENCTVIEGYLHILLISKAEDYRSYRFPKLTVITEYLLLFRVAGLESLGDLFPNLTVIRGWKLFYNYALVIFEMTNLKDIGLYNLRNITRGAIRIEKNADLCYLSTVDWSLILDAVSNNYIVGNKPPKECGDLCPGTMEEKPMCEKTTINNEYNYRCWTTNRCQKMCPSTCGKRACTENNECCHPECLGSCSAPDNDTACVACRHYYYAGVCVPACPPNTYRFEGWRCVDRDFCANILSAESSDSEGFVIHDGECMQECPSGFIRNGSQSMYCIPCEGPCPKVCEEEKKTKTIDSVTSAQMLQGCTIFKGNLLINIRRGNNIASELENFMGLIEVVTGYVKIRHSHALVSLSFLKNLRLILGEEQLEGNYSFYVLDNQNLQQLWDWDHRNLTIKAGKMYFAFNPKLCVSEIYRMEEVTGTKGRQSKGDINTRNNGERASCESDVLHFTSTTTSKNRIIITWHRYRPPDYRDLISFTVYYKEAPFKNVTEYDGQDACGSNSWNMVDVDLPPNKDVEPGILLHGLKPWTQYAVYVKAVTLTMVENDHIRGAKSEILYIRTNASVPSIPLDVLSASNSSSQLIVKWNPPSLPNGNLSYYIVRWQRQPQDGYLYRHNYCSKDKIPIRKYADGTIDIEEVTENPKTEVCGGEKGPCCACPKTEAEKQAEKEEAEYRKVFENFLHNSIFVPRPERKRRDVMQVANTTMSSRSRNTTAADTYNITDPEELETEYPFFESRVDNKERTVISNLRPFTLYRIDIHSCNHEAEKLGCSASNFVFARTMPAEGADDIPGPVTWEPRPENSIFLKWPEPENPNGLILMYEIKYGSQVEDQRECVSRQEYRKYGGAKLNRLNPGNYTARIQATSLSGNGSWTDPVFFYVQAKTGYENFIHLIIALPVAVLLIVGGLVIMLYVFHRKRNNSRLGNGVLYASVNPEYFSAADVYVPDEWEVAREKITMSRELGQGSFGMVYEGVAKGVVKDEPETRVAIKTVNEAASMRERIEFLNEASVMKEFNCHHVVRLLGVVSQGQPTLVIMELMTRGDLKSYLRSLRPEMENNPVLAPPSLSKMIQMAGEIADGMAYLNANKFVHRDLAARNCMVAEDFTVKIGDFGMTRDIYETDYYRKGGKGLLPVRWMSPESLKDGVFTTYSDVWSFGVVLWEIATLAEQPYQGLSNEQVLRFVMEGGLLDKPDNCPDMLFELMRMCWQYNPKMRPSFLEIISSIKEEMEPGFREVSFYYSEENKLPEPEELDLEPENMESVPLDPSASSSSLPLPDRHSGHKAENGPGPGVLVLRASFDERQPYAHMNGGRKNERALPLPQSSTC
Text: as §1

Aurora-A(h) = Aurora-A(h) (Homo sapiens, UniProt O14965); assay: Kinase inhibition at 1 μM; type: biochemical; conditions: 1 μM of compound
Text: as §1

GSK3β(h) = GSK3β(h) (Homo sapiens, UniProt P49841); assay: Kinase inhibition at 1 μM; type: biochemical; conditions: 1 μM of compound
Chain of GSK3β(h) (P49841 whole entry): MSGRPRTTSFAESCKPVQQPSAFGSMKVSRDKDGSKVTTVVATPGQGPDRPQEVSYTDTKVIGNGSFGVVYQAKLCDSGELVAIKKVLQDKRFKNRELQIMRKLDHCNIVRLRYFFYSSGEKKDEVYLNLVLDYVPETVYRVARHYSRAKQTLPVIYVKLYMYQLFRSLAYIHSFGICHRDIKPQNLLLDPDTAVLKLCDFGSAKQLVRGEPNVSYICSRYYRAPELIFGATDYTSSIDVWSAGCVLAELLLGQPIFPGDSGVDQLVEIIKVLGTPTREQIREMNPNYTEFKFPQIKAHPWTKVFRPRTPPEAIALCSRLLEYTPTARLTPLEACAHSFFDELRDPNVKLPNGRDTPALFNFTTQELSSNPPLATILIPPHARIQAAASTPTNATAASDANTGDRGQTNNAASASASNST
Text: as §1

Ret(h) = Ret(h) (Homo sapiens, UniProt P07949); assay: Kinase inhibition at 1 μM; type: biochemical; conditions: 1 μM of compound
Text: as §1

[2] = Drug metabolism and pharmacokinetics, IV and oral dosing; type: in vivo
human Gli1 mRNA = assay: Q-RT-PCR of human Gli1 mRNA in L3.6pl and ASPC-1 pancreatic cancer xenografts; type: in vivo; conditions: IPI-926 orally 40 mg/kg, tumors collected 24 hours later; data not shown
Text: (§2) The abilities of IPI-926 to regulate Gli1 expressions were examined in pancreatic cancer xenograft models of L3.6pl and ASPC-1. L3.6pl and ASPC-1 human pancreatic cell lines were implanted subcutaneously into mice. […] Human Hh ligand expression was detected and human Glil mRNA levels were not modulated with the treatment (data not shown).

[3] = tested on: L3.6pl pancreatic xenograft; assay: Tumor growth in L3.6pl pancreatic xenograft model; conditions: days post implant; IPI-926 40 mg/kg QOD, Abraxane 20 mg/kg QW1
Method: The L3.6pl human pancreatic cell line was implanted subcutaneously into mice and treatment was initiated on Day 10 after implant. IPI-926 was administered orally at 40 mg/kg every other day (“QOD”) and Abraxane® was administered i.v. at 20 mg/kg once a week (QW1). […] Mice remained on treatment and time to reach 1000 mm^3 was recorded. Once tumors reached 1000 mm^3, mice were taken off study.

[4] = tested on: L3.6pl pancreatic cancer xenograft; assay: Tumor perfusion by contrast-enhanced ultrasound in L3.6pl xenograft; type: in vivo, mice
Method: The effects of IPI-926 on tumor perfusion were examined in the L3.6pl pancreatic cancer xenograft model. The L3.6pl tumor cell line was injected subcutaneously and treatment with IPI-926 was initiated. IPI-926 or vehicle was administered orally at 40 mg/kg for seven consecutive days. Mice were subjected to ultrasound image analysis using perfusion contrast enhancement (microbubbles) during the imaging procedure. […] The time to reach peak contrast was measured and there was a decrease in the IPI-926 treated animals compared to vehicle-treated animals.

[5] = tested on: ASPC-1 human pancreatic tumor; assay: Tumor growth in ASPC-1 human pancreatic tumor model; conditions: day 41, compared to vehicle control; IPI-926 40 mg/kg orally QOD, Abraxane 20 mg/kg i.v. QW1
Method: The ASPC-1 human pancreatic cell line was implanted subcutaneously and treatment was initiated on day 20 after implant. IPI-926 was administered orally at 40 mg/kg QOD and Abraxane® was dosed i.v. at 20 mg/kg QW1. The final i.v. dose of Abraxane® was administered on day 34 and the final dose of IPI-926 was administered on day 41. Re-growth was monitored after the treatment stopped.

murine Gli1 mRNA = assay: Q-RT-PCR of murine Gli1 mRNA in L3.6pl and ASPC-1 pancreatic cancer xenografts; type: in vivo, mice; conditions: IPI-926 orally 40 mg/kg, tumors collected 24 hours later; p<0.005
Text: as §2

[6] = compound 75 mg/kg qdx12 i.p. + Abraxane 10 mg/kg q4dx3 i.v.

inhibition at 1 µM (cSRC(h)) [%]	inhibition at 1 µM (EGFR(h)) [%]	inhibition at 1 µM (EphB4(h)) [%]	inhibition at 1 µM (TrkA(h)) [%]	inhibition at 1 µM (mTOR(h)) [%]	inhibition at 1 µM (Ab1(h)) [%]	inhibition at 1 µM (PDGFRa(h)) [%]	inhibition at 1 µM (cKit(h)) [%]	inhibition at 1 µM (Met(h)) [%]	inhibition at 1 µM (MEK1(h)) [%]	inhibition at 1 µM (Flt3(h)) [%]	inhibition at 1 µM (PKBa(h)) [%]	inhibition at 1 µM (GF-1R(h), activate) [%]	inhibition at 1 µM (Aurora-A(h)) [%]	inhibition at 1 µM (GSK3β(h)) [%]	inhibition at 1 µM (Ret(h)) [%]	F ([2]; Oral dosing) [%]	AUC(0-inf) ([2]; in vivo, IV dosing) [ng·h/mL]	Structure (SMILES)	enhancement of the antitumor activity of Abraxane [1, 6]	tumor inhibition as single agent [1]	other results
-1	-9	-33	-7	-6	13	0	-4	-19	2	1	-19	8	7	-4	1	53	3980 ± 1540	CS(=O)(=O)c1ccc(C(=O)Nc2ccc(Cl)c(-c3ccccn3)c2)c(Cl)c1 [GDC-0449]		none of ABI2012, ABI1914, ABI2088, and ABI2099 as single agent showed significant tumor inhibition effects	clearance ([2]; in vivo, IV dosing): 4.65 ± 1.81 mL/min/kg; half-life ([2]; in vivo, IV dosing): 79.2 ± 15.5 min; AUC(0-inf) ([2]; in vivo, Oral dosing): 10500 ± 3150 ng·h/mL; Cmax ([2]; in vivo, Oral dosing): 2760 ± 1020 ng/mL; Tmax ([2]; in vivo, Oral dosing): 40 ± 17.3 min
																62	1390 ± 164	CC(=O)Nc1ccc(C(=O)Nc2ccc(Cl)c(-c3nccc4ccccc34)c2)c(Cl)c1 [ABI2088]	significantly enhanced the antitumor activity of Abraxane®	none of ABI2012, ABI1914, ABI2088, and ABI2099 as single agent showed significant tumor inhibition effects	tumor growth inhibition in combination with Abraxane ([1]; day 22, compound 75 mg/kg qdx12 i.p. + Abraxane 10 mg/kg q4dx3 i.v.): about 100%; clearance ([2]; in vivo, IV dosing): 12.1 ± 1.59 mL/min/kg; half-life ([2]; in vivo, IV dosing): 78.6 ± 8.4 min; Vd ([2]; in vivo, IV dosing, read-out: Vss): 1.02 ± 0.11 L/kg; AUC(0-inf) ([2]; in vivo, Oral dosing): 4310 ± 1200 ng·h/mL; Cmax ([2]; in vivo, Oral dosing): 1000 ± 659 ng/mL; Tmax ([2]; in vivo, Oral dosing): 30 min

The remaining lines, values behind:

Structure (SMILES)	inhibition at 1 µM (cSRC(h)) [%]	inhibition at 1 µM (EGFR(h)) [%]	inhibition at 1 µM (EphB4(h)) [%]	inhibition at 1 µM (TrkA(h)) [%]	inhibition at 1 µM (mTOR(h)) [%]	inhibition at 1 µM (Ab1(h)) [%]	inhibition at 1 µM (PDGFRa(h)) [%]	inhibition at 1 µM (cKit(h)) [%]	inhibition at 1 µM (Met(h)) [%]	inhibition at 1 µM (MEK1(h)) [%]	inhibition at 1 µM (Flt3(h)) [%]	inhibition at 1 µM (PKBa(h)) [%]	inhibition at 1 µM (GF-1R(h), activate) [%]	inhibition at 1 µM (Aurora-A(h)) [%]	inhibition at 1 µM (GSK3β(h)) [%]	inhibition at 1 µM (Ret(h)) [%]	F ([2]; Oral dosing) [%]	AUC(0-inf) ([2]; in vivo, IV dosing) [ng·h/mL]	enhancement of the antitumor activity of Abraxane [1, 6]	tumor inhibition as single agent [1]	other results
Cc1cc(C(F)(F)F)ccc1C(=O)Nc1ccc(Cl)c(-c2nccc3ccccc23)c1 [ABI2099]																			significantly enhanced the antitumor activity of Abraxane®	none of ABI2012, ABI1914, ABI2088, and ABI2099 as single agent showed significant tumor inhibition effects	
CS(=O)(=O)c1ccc(C(=O)Nc2ccc(Cl)c(-c3nccc4ccccc34)c2)c(Cl)c1 [ABI1914]	3	-3	-12	-12	6	-18	-3	-4	3	-9	-14	5	-5	1	3	-3				none of ABI2012, ABI1914, ABI2088, and ABI2099 as single agent showed significant tumor inhibition effects	
CC1=C2C[C@H]3[C@@H](CC[C@@H]4C[C@H](NS(C)(=O)=O)CC[C@@]43C)[C@@H]2CC[C@@]2(C1)O[C@@H]1C[C@H](C)CN[C@H]1[C@H]2C [IPI-926, IPI926]																					human Gli1 mRNA levels (human Gli1 mRNA): not modulated; median % of mice on study (mice taken off study when tumors reached 1000 mm^3) [3]: no effect as a single agent; average peak time for contrast agent levels ([4]; 40 mg/kg orally for seven consecutive days, vehicle 11.0 seconds, p=0.0321): 4.75 s; Time to Peak (contrast) ([4]; individual mice, 40 mg/kg orally for seven consecutive days, 40 mg/kg): 3 s and 4 s and 6 s (2×); tumor perfusion ([4]; subcutaneous L3.6pl model, 40 mg/kg orally for seven days): increased tumor perfusion; tumor growth inhibition [5]: 38%; murine Gli1 mRNA expression (murine Gli1 mRNA): inhibition of murine Glil mRNA expression
